# Reference: paper PMC4609936, “Pharmacologically targeted NMDA receptor antagonism by NitroMemantine for cerebrovascular disease” (Scientific Reports, 2015)
# Like-named read-outs stand apart in the source and are kept apart here.
# How the values were obtained:
# [1] = test system: NMDAR-mediated component of the EPSC; assay: Evoked EPSCs in hippocampal autapses, whole-cell recording; type: cell-based, rat
# LTP in hippocampal CA1 = assay: LTP in hippocampal slices by field recordings; type: cell-based; conditions: 10 μM, high-frequency burst, rat hippocampal slices
# [2] = molecular target: GluN1(N616R)/GluN2A channels (Homo sapiens, UniProt Q05586+Q12879, N616R); assay: Oocyte voltage clamp, redox effect on memantine binding site mutant; type: cell-based; conditions: for effect of GluN1(N616R) mutation on inhibition of current via S-nitrosylation: 200 µM
# Sequence of GluN1(N616R)/GluN2A channels (Q12879 23-1464, other chains not shown): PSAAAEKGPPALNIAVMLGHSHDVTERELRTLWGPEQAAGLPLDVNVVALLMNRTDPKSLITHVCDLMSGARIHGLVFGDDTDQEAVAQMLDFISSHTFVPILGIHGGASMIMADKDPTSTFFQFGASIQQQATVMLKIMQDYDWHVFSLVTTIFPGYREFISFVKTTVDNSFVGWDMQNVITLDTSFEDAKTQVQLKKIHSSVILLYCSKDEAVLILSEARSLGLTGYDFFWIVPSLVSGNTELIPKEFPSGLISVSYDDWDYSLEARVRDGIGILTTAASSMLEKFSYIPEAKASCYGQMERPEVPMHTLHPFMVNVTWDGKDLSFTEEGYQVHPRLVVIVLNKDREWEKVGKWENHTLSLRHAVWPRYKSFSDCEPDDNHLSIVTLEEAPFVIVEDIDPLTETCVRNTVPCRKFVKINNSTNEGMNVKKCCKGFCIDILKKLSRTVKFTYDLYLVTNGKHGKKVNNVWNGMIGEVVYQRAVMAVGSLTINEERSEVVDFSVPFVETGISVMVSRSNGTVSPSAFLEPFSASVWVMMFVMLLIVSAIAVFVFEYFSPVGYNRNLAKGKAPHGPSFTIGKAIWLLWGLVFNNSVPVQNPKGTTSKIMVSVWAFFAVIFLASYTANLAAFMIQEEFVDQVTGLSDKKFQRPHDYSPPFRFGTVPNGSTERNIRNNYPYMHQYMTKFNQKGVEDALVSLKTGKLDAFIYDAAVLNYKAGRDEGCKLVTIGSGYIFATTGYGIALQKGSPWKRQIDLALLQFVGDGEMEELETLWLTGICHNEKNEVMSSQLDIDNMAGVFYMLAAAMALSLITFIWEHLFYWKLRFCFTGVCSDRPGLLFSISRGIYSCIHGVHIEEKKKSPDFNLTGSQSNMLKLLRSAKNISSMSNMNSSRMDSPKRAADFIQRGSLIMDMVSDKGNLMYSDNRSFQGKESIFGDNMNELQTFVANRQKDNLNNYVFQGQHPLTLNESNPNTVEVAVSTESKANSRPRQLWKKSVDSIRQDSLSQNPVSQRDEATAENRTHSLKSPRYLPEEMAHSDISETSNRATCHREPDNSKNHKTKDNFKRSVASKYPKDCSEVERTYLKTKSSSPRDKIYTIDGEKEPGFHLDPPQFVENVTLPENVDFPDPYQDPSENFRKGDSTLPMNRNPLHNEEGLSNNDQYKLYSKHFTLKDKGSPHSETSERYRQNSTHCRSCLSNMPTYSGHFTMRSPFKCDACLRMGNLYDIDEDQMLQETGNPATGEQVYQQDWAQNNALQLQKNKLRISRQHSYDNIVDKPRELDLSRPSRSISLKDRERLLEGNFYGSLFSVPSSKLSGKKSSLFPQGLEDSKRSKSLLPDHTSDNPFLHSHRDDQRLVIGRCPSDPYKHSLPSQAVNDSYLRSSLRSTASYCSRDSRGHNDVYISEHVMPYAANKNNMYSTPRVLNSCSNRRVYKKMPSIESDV
# Experimental: (§1) Two-electrode voltage clamp recordings at −60 or −70 mV were made on oocytes in frog Ringer’s solution two to seven days after injection of NMDAR subunits. Recordings were performed with an Oocyte Clamp OC-725b amplifier (Warner Instrument Corporation, Hamden, CT) using MacLab version 3.5 software (AD Instruments, Milford, MA) at room temperature. […] Both electrodes were filled with 3 M KCl. A solution containing 90 mM NaCl, 1 mM KCl, 10 mM HEPES, 1.5 mM BaCl2, and 10–100 μM glycine, pH 7.5 was used to continuously superfuse the oocytes. Barium, rather than calcium, was used as the divalent cation in order to minimize secondary activation of Ca^2+-activated Cl^− current. In some experiments, 1.2 mM MgCl2 was added to the bath solution. Drugs were dissolved in frog Ringer’s solution and applied by superfusion at a 2 ml/min flow rate. In some cases, to achieve relatively rapid solution exchange, we used an array of pipettes similar to the “sewer pipe” system used in patch-clamp recording. Perfusion artifacts were digitally removed from the traces.
# Mutant NMDAR subunits were prepared using the Chameleon^TM double-stranded site-directed mutagenesis kit (Stratagene) according to the manufacturer’s instructions. The entire coding region was sequenced to verify the mutation.
# [3] = molecular target: recombinant GluN1/GluN2A receptors (Homo sapiens, UniProt Q05586+Q12879); assay: Two-electrode voltage clamp of oocytes, channel block of NMDA-induced current; type: cell-based; conditions: for steady-state channel block of NMDA current: 10 μM (equimolar), Vh −70 mV; for IC50: steady-state, short-term drug addition, holding potential −70 mV, nominal absence of extracellular Mg2+, read-out: IC50 of inhibiting NMDA-induced current
# Sequence of recombinant GluN1/GluN2A receptors (Q12879 23-1464, other chains not shown): as above
# Experimental: […] Recordings were performed with an Oocyte Clamp OC-725b amplifier (Warner Instrument Corporation, Hamden, CT) using MacLab version 3.5 software (AD Instruments, Milford, MA) at room temperature. […] Both electrodes were filled with 3 M KCl. A solution containing 90 mM NaCl, 1 mM KCl, 10 mM HEPES, 1.5 mM BaCl2, and 10–100 μM glycine, pH 7.5 was used to continuously superfuse the oocytes. Barium, rather than calcium, was used as the divalent cation in order to minimize secondary activation of Ca^2+-activated Cl^− current. In some experiments, 1.2 mM MgCl2 was added to the bath solution. Drugs were dissolved in frog Ringer’s solution and applied by superfusion at a 2 ml/min flow rate. In some cases, to achieve relatively rapid solution exchange, we used an array of pipettes similar to the “sewer pipe” system used in patch-clamp recording. Perfusion artifacts were digitally removed from the traces.
# [4] = molecular target: NMDA-evoked currents in primary rat cortical neurons (Rattus norvegicus, UniProt P35439); assay: Whole-cell patch clamp of NMDA-evoked currents in primary rat cortical neurons; type: cell-based; conditions: 5 μM, −75 mV and +30 mV
# GluN1/GluN2A NMDARs = assay: Oocyte voltage clamp, redox (S-nitrosylation) mediated inhibition of NMDA-evoked current; type: cell-based
# Experimental: as §1
# SNO-GluN1 and SNO-Drp1 = assay: Biotin switch assay of S-nitrosylated proteins in brain after stroke; type: in vivo, rat; conditions: SHR, loading dose 2-h post occlusion, sacrificed 90 min thereafter
# Experimental: Analysis of S-nitrosylation of NMDA receptors in rat brain was performed by the biotin switch assay, as previously described[48][49]. Free thiols in tissue lysates were blocked with methyl-methanethiosulfonate. Proteins were then precipitated with acetone and resuspended in HEN buffer (250 mM HEPES, pH 7.4, 1 mM EDTA, 0.1 mM neocuproine) plus 1% sodium dodecyl sulfate. Ascorbate was used to selectively reduce nitrosothiols in order to reform free thiol groups, which were subsequently biotinylated using 1 mM biotin-HPDP (Pierce, Rockford, IL). Parallel reactions were performed without ascorbate as a control to ensure specificity of the biotinylated bands. Biotinylated proteins were captured on streptavidin-agarose beads and analyzed by immunoblotting.
# [5] = test system: spontaneously hypertensive rats (SHR); assay: Morris water maze; type: in vivo, rat; conditions: neuroprotective doses: 65.8 μmol/kg loading i.p., 3.29 μmol/kg every 12 h
# Experimental: Adult male spontaneously hypertensive rats (SHR) were treated with either PBS or NitroMemantine (65.8 μmol/kg loading dose, i.p., followed by a 3.29 μmol/kg maintenance dose every 12 h). Each group was comprised of five rats (n = 5). Treatment for both groups commenced 48 h prior to the first day of testing. Both the treatment and water-maze testing were conducted in a blinded fashion. The water maze consisted of a circular pool 150 cm in diameter and 85 cm deep. The pool was filled to cover a moveable platform, black in color, by 1 cm of water. The water was made opaque via the addition of black paint and maintained at room temperature (20–23 °C) for the duration of the five days of testing. A white pool with black water allowed the video camera to successfully track the white rats with maximum contrast. On day 1, the rats were placed in the pool with no platform for 60 s of acclimation. Days 2 through 5 were used for testing. Starting on day 2 and continuing to day 5, rats were trained for 24 total trials (six trials/day) to locate and reach the submerged platform. The platform was kept in the same location for all trials in each session (day), but changed from session to session in a pre-determined order, yielding four unique locations in all. In addition, there were four possible release locations (the four cardinal compass directions at the pool’s perimeter). […]
# developing cerebrocortex = assay: Cerebrocortical apoptosis by TUNEL in neonatal rats; type: in vivo; conditions: P7 rat pups, loading dose, 24 h later
# [6] = test system: spontaneously hypertensive rats (SHR); assay: tMCAO/R focal cerebral ischemia, infarct size by TTC staining; type: in vivo, rat; conditions: for histological protection (infarct size) at equimolar dose: MFD of NitroMemantine (65.8 μmol/kg loading, 3.29 μmol/kg maintenance); for histological protection (infarct, TTC staining): loading i.p. 2-h post occlusion: memantine 90.3 μmol/kg, NitroMemantine 65.8 μmol/kg, maintenance 12 h later, sacrificed at 24 h
# Experimental: Because of their known propensity to stroke, similar to human patients with hypertension, we used spontaneous hypertensive rats (SHR, Harlan) to induce tMCAO/R with the intraluminal suture method. Male 200–300 g SHR were anesthetized with 3% isoflurane in 30% oxygen/70% nitrous oxide using an anesthetic vaporizer and flowmeter. Body temperature was maintained at 37 °C with a homeothermic temperature system. A laser Doppler monitor was used to monitor relative cerebral blood flow (rCBF) during the surgical procedure and recovery. rCBF measurements were made immediately after anesthesia, after occlusion of the MCA, just before, and immediately after withdrawal of the suture to initiate reperfusion. To initiate a stroke, a midline incision was made to expose the right common carotid, external carotid, and internal carotid arteries. The occipital artery branches of the external carotid artery were isolated and along with the terminal lingual and maxillary artery branches coagulated with an electrocautery unit. The internal carotid artery was isolated and carefully separated from the adjacent vagus nerve. The pterygopalatine artery was ligated close to its origin, two loosely tied sutures placed around the external carotid artery stump, and a microaneurysm clip applied to the external carotid artery near its bifurcation with the internal carotid artery. A small puncture opening was made in the external carotid artery, a monofilament (intraluminal suture) inserted through the opening, and the sutures tightened around the lumen containing the filament. The microaneurysm clip was removed from the external carotid artery and the monofilament gently advanced from the lumen of the external carotid artery into the internal carotid artery for a distance of ~19 to 20 mm beyond the bifurcation of the common carotid artery until the blood flow dropped (≥80% reduction by rCBF measurement). The suture around the external carotid artery stump was tightened to prevent bleeding. After 2 h, sutures were removed, the filament withdrawn and the incision sutured removed, with rCBF recovering at least 75% at reperfusion. Just prior to reperfusion, rats were administered memantine, NitroMemantine, or memantine-OH via i.p. injection in saline vehicle or an equivalent volume of vehicle alone. […] Maintenance doses (4.63 μmol/kg of memantine and 3.29 μmol/kg of NitroMemantine, equivalent to 1 mg/kg or each) were administered 12 h after the loading dose. […] In subsequent experiments, equimolar memantine, NitroMemantine YQW-036, or memantine-OH was used using the lower NitroMemantine dose described above. The rodents were sacrificed 24-h post occlusion, and the size of brain infarct was evaluated histologically by 2,3,5-triphenyl-2H-tetrazolium chloride (TTC) staining.
# [7] = test system: spontaneously hypertensive rats (SHR); assay: Neurological/behavioral score after tMCAO/R; type: in vivo, rat; conditions: same doses as histology (memantine 90.3, NitroMemantine 65.8 μmol/kg loading), 24-h post stroke
# Excerpt: Each adult animal underwent a neurologic evaluation[51] immediately after filament removal and again 1 day after reperfusion (prior to sacrifice). Each animal was assigned an objective behavioral score of 0–4: 0 representing no observable neurological deficit; 1 failure to extend the left forepaw; 2 circling to the left; 3 falling to the left; 4 cannot walk spontaneously. The scores obtained 24-h post stroke were averaged for each time point of each treatment group and presented as the neurological score.
# [8] = test system: spontaneously hypertensive rats (SHR); assay: Physiological parameters during stroke; type: in vivo, rat; conditions: loading dose, n = 18 SHR
# Aqueous solubility = type: physicochemical
# [9] = design: method as in PMID 19915593; conditions: memantine 90.3 μmol/kg loading, 4.63 μmol/kg maintenance; cited from earlier work
# [10] = test system: NMDAR-operated ion channel; conditions: cited from earlier work
smiles,measurement,setting,value
"N[C@H](CCCP(=O)(O)O)C(=O)O [D-AP5, (2R)-amino-5-phosphonopentanoate]",block of NMDAR component of the EPSC,"[1]; 50 μM, control",completely blocked
"C[C@]12N[C@H](Cc3ccccc31)c1ccccc12 [MK-801, reference compound]",effect on LTP induction,LTP in hippocampal CA1,completely inhibited LTP induction
"N[C@@H](CSN=O)C(=O)O [SNOC, S-nitrosocysteine, reference compound]",effect of GluN1(N616R) mutation on inhibition of current via S-nitrosylation,[2],did not affect inhibition
CC12CC3(C)CC(N)(C1)CC(O[N+](=O)[O-])(C2)C3 [YQW-035],steady-state channel block of NMDA current,[3],less channel block than memantine but more than amantadine
same,IC50,[3],6300 nM
same,effect of GluN1(N616R) mutation on inhibition of current via S-nitrosylation,[2],eliminated inhibition
CCC12CC3(N)CC(CC)(C1)CC(O[N+](=O)[O-])(C3)C2 [YQW-036],steady-state channel block of NMDA current,[3],approximately the same degree as memantine
same,inhibition of NMDA-evoked current in the presence of extracellular Mg2+,"[3]; 10 µM, 1.2 mM Mg2+, NMDA 100 µM, holding potential −40 mV",inhibited
same,IC50,[3],2400 nM
same,"blockade of NMDA-evoked current, voltage dependence",[4],approximately equivalent degree of blockade at both –75 mV and less blockade at +30 mV
same,inhibition of NMDA-evoked current under conditions used to observe S-nitrosylation,"GluN1/GluN2A NMDARs; 100 μM, Vh −60 mV",inhibited NMDA-evoked current
same,prolonged inhibitory effect after prior MTSEA or mutation of redox-active cysteines,GluN1/GluN2A NMDARs; prior addition of MTSEA or mutation of redox-active cysteines in the NMDAR,largely abrogated
same,redox-mediated activity on GluN1(N616R) mutant,[2]; 100 μM,abrogated
same,S-nitrosylation of Drp1 (SNO-Drp1),SNO-GluN1 and SNO-Drp1,not significantly affected
same,"S-nitrosylation of the GluN1 subunit (SNO-GluN1), ipsilateral to stroke",SNO-GluN1 and SNO-Drp1,significant increase
same,change of EPSC blockade with repeated electrical stimulation (pulses 1–10),[1]; 10 μM,did not significantly increase
same,block of NMDAR-mediated component of the EPSC,"[1]; 10 μM, 20 μM CNQX present",blocked to a lesser extent
same,effect on LTP induction,LTP in hippocampal CA1,did not inhibit LTP
same,Morris water maze performance,[5],not affected
same,cerebrocortical neuronal apoptosis (TUNEL),developing cerebrocortex,do not cause
same,histological protection (infarct size) at equimolar dose,[6],significant benefit
same,"histological protection (infarct, TTC staining)",[6],protected to a greater extent than memantine
same,"histological protection (infarct, TTC staining)",[6]; listed as NitroMemantine,offer histological protection
same,neurological/behavioral score,[7],showed a protective effect
same,"physiological parameters (temperatures, blood pressure, metabolic panel)",[8],not significantly affected
same,aqueous solubility,Aqueous solubility,lower solubility in aqueous solution
CCCC12CC3(N)CC(CCC)(C1)CC(O[N+](=O)[O-])(C3)C2 [YQW-037],aqueous solubility,Aqueous solubility,cannot be dissolved in aqueous solutions
"NC12CC3CC(CC(C3)C1)C2 [amantadine, reference compound]",steady-state channel block of NMDA current,[3],inhibited less NMDA current at steady state than equimolar memantine
CC12CC3CC(C)(C1)CC(N)(C3)C2 [memantine],"blockade of NMDA-evoked current, voltage dependence",[4],approximately equivalent degree of blockade at both –75 mV and less blockade at +30 mV
same,block of NMDAR-mediated component of the EPSC,[1],blocks neurotransmission to a greater degree than NitroMemantine
same,change of EPSC blockade with repeated electrical stimulation (pulses 1–10),[1],use-dependent
same,cerebrocortical neuronal apoptosis (TUNEL),developing cerebrocortex,do not cause
same,histological protection (infarct size) at equimolar dose,[6],no significant protection
same,"histological protection (infarct, TTC staining)",[6],offer histological protection
same,"physiological parameters (temperatures, blood pressure, metabolic panel)",[8],not significantly affected
same,concentration at the mouth of the NMDAR-associated ion channel,[9],5 to 10 µM
same,IC50,[10],500 to 1000 nM
